In patent publication US20170239323A1, “ORITAVANCIN FORMULATIONS” (The Medicines Company, priority 2016, published 2017):

Test: pH adjustment of oritavancin/HPCD solution with 1N NaOH: visual observations
Assay type: physicochemical
Settings: for Observations: 20% w/v HPCD reconstitution (3 mL aliquot)
Experimental: Reconstituting Orbactiv 400 mg (Oritavancin) in 20% w/v HPCD, diluting in saline then adjusting pH. The 50 mg/mL solution of oritavancin in 20% w/v HPCD (described in Table 3) was further diluted in 0.9% saline to 6 mg/mL in a small glass vial. The pH was adjusted using 1N NaOH. NaOH was added to the oritavancin solution in […] and vortexed. Visual observations and pH were recorded (Table 5).
Reconstituting Orbactiv 400 mg (Oritavancin) in 50% w/v HPCD aqueous solution, adjusting pH then diluting in saline. 6.269 g of HPCD was dissolved in 12.538 mL of water to make a 50% w/v solution (pH=7.23). Seven (7) mL of the 50% w/v solution was added to a 400 mg vial of Orbactiv for a target oritavancin concentration of 57.14 mg/mL. […] A 2 mL aliquot of 57.14 mg/mL was removed from the vial and placed in a small glass vial. The pH was adjusted to 6.5 using 1N NaOH. NaOH was added to the oritavancin solution in 5 μL increments and vortexed. Visual observations and pH were recorded (Table 6).
Reconstituting Orbactiv 400 mg (Oritavancin) in 50% w/v aqueous HPCD, adjusting pH then diluting in saline. 6.112 g of HPCD was dissolved in 12.224 mL of water to make a 50% w/v solution (pH=6.74). Seven (7) mL of the 50% w/v HPCD solution was added to a 400 mg vial of Orbactiv for a target oritavancin concentration of 57.14 mg/mL. […] A 3 mL aliquot of 57.14 mg/mL was removed from the vial and placed in a small glass vial. The pH was adjusted to 7 using 1N NaOH. NaOH was added to the oritavancin solution in 5 μL increments and vortexed. Visual observations and pH were recorded (Table 8).
Reconstituting Orbactiv 400 mg (Oritavancin) in 20% w/v aqueous HPCD, adjusting pH then diluting in saline. 3.555 g of HPCD was dissolved in 17.775 mL of water to make a 20% w/v solution (pH=6.88). Seven (7) mL of the 20% w/v HPCD solution was added to a 400 mg vial of Orbactiv for a target oritavancin concentration of 57.14 mg/mL. […] A 3 mL aliquot of 57.14 mg/mL was removed from the vial and placed in a small glass vial. The pH was adjusted to 7 using 1N NaOH. NaOH was added to the oritavancin solution in 5 μL increments and vortexed. Visual observations and pH were recorded. (Table 10).

CN[C@H](CC(C)C)C(=O)N[C@H]1C(=O)N[C@@H](CC(N)=O)C(=O)N[C@H]2C(=O)N[C@H]3C(=O)N[C@H](C(=O)N[C@H](C(=O)O)c4cc(O)cc(O)c4-c4cc3ccc4O)[C@H](O[C@H]3C[C@](C)(N)[C@@H](O)[C@H](C)O3)c3ccc(c(Cl)c3)Oc3cc2cc(c3O[C@@H]2O[C@H](CO)[C@@H](O)[C@H](O)[C@H]2O[C@H]2C[C@](C)(NCc3ccc(-c4ccc(Cl)cc4)cc3)[C@@H](O)[C@H](C)O2)Oc2ccc(cc2Cl)[C@H]1O [Oritavancin]
7: pH to which solution could be adjusted without any sign of precipitation (57 mg/mL in 20% w/v aqueous HPCD, over 24 hours) | pH to which solution could be adjusted without any sign of precipitation (57 mg/mL in 50% w/v aqueous HPCD, over 24 hours)
Clear, colorless solution: Observations (1N NaOH 5 μL, pH 4.11, oritavancin 57.04 mg/mL) | Observations (1N NaOH 10 μL, pH 4.31, oritavancin 56.94 mg/mL) | Observations (1N NaOH 15 μL, pH 4.68, oritavancin 56.84 mg/mL) | Observations (1N NaOH 20 μL, pH 4.89, oritavancin 56.74 mg/mL) | Observations (1N NaOH 25 μL, pH 5.19, oritavancin 56.64 mg/mL) | Observations (1N NaOH 30 μL, pH 5.29, oritavancin 56.54 mg/mL) | Observations (1N NaOH 40 μL, pH 5.57, oritavancin 56.34 mg/mL) | Observations (1N NaOH 45 μL, pH 5.63, oritavancin 56.23 mg/mL) | Observations (1N NaOH 50 μL, pH 5.69, oritavancin 56.13 mg/mL) | Observations (1N NaOH 55 μL, pH 5.82, oritavancin 56.03 mg/mL) | Observations (1N NaOH 60 μL, pH 5.87, oritavancin 55.92 mg/mL) | Observations (1N NaOH 70 μL, pH 6.01, oritavancin 55.71 mg/mL) | Observations (1N NaOH 75 μL, pH 6.06, oritavancin 56.60 mg/mL) | Observations (1N NaOH 80 μL, pH 6.10, oritavancin 55.49 mg/mL) | Observations (1N NaOH 85 μL, pH 6.18, oritavancin 55.38 mg/mL) | Observations (1N NaOH 90 μL, pH 6.20, oritavancin 55.28 mg/mL) | Observations (1N NaOH 95 μL, pH 6.24, oritavancin 55.17 mg/mL) | Observations (1N NaOH 100 μL, pH 6.28, oritavancin 55.06 mg/mL) | Observations (1N NaOH 105 μL, pH 6.34, oritavancin 54.95 mg/mL) | Observations (1N NaOH 110 μL, pH 6.38, oritavancin 54.85 mg/mL) | Observations (1N NaOH 115 μL, pH 6.44, oritavancin 54.74 mg/mL) | Observations (1N NaOH 125 μL, pH 6.52, oritavancin 54.52 mg/mL) | Observations (1N NaOH 130 μL, pH 6.54, oritavancin 54.41 mg/mL) | Observations (1N NaOH 135 μL, pH 6.57, oritavancin 54.30 mg/mL) | Observations (1N NaOH 140 μL, pH 6.62, oritavancin 54.19 mg/mL) | Observations (1N NaOH 145 μL, pH 6.65, oritavancin 54.09 mg/mL) | Observations (1N NaOH 150 μL, pH 6.69, oritavancin 53.97 mg/mL) | Observations (1N NaOH 155 μL, pH 6.72, oritavancin 53.86 mg/mL) | Observations (1N NaOH 165 μL, pH 6.80, oritavancin 53.63 mg/mL) | Observations (1N NaOH 170 μL, pH 6.82, oritavancin 53.51 mg/mL) | Observations (1N NaOH 175 μL, pH 6.86, oritavancin 53.40 mg/mL) | Observations (1N NaOH 180 μL, pH 6.90, oritavancin 53.28 mg/mL) | Observations (1N NaOH 185 μL, pH 6.93, oritavancin 53.17 mg/mL) | Observations (1N NaOH 190 μL, pH 6.98, oritavancin 53.05 mg/mL)
6.3: pH to which solution could be adjusted without any sign of precipitation (57 mg/mL in 50% w/v aqueous HPCD, over an hour)
Clear, colorless solution.: Observations (1N NaOH 0 μL, pH 3.95, oritavancin 57.14 mg/mL) | Observations (1N NaOH 35 μL, pH 5.45, oritavancin 56.44 mg/mL) | Observations (1N NaOH 65 μL, pH 5.95, oritavancin 55.82 mg/mL) | Observations (1N NaOH 120 μL, pH 6.49, oritavancin 54.64 mg/mL) | Observations (1N NaOH 160 μL, pH 6.76, oritavancin 53.75 mg/mL) | Observations (1N NaOH 195 μL, pH 7.03, oritavancin 52.94 mg/mL)
